Reference: ChEMBL document CHEMBL6153072, “Metabolically Stable Adenylation Inhibitors of Biotin Protein Ligase as Antibacterial Agents” (J Med Chem, 2025)

How the values were obtained:
[1] = target: T1, Biotin--[acetyl-CoA-carboxylase] ligase (Mycobacterium tuberculosis (strain ATCC 25618 / H37Rv), UniProt I6YFP0); experiment: Binding affinity to Mycobacterium tuberculosis BPL assessed as dissociation constant by isothermal titration calorimetry
T1 sequence (I6YFP0 whole entry): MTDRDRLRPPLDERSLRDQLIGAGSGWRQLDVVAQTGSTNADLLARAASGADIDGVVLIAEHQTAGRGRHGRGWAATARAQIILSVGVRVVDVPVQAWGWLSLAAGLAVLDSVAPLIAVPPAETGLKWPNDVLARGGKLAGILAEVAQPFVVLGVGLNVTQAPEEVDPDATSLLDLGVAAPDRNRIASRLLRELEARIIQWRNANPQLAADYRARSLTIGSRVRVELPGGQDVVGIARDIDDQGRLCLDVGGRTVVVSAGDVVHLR

[2] = target: T2, Biotin--[acetyl-CoA-carboxylase] ligase (Mycobacterium tuberculosis (strain ATCC 25618 / H37Rv)) (UniProt I6YFP0); experiment: Binding affinity to Mycobacterium tuberculosis BPL assessed as change in gibbs free energy by isothermal titration calorimetry
T2 sequence (whole entry): T1 sequence (I6YFP0 whole entry)

[3] = target: T2, Biotin--[acetyl-CoA-carboxylase] ligase (Mycobacterium tuberculosis (strain ATCC 25618 / H37Rv)); experiment: Binding affinity to Mycobacterium tuberculosis BPL assessed as change in enthalpy by isothermal titration calorimetry
[4] = target: T2, Biotin--[acetyl-CoA-carboxylase] ligase (Mycobacterium tuberculosis (strain ATCC 25618 / H37Rv)); experiment: Binding affinity to Mycobacterium tuberculosis BPL assessed as change in entropy by isothermal titration calorimetry
[5] = system: Mycobacterium tuberculosis; experiment: Antimicrobial activity against wild type Mycobacterium tuberculosis H37Rv assessed as inhibition of microbial growth incubated for 14 days in biotin-deficient GAST medium by broth microdilution assay; assay type: functional; details: 336 h, time 14 day
Staphylococcus aureus [6] = experiment: Antimicrobial activity against methicillin-sensitive Staphylococcus aureus […] assessed as inhibition of microbial growth incubated for 14 days in biotin-deficient GAST medium by broth microdilution assay; assay type: functional; details: 336 h, time 14 day
Staphylococcus aureus [7] = experiment: Antimicrobial activity against methicillin-resistant Staphylococcus aureus FPR3757 assessed as inhibition of microbial growth incubated for 14 days in biotin-deficient GAST medium by broth microdilution assay; assay type: functional; details: FPR3757, 336 h, time 14 day
[8] = AUC (0 to 24 hrs) in female CD-1 mouse at 5 mg/kg, iv administered […] measured after 24 hrs by LC-MS/MS analysis; assay type: ADME, organism-based; details: in vivo
[9] = Drug metabolism in female CD-1 mouse assessed as AUC (0 to 24 hrs) of adenosine-5-sulfamide metabolite at 5 mg/kg, iv administered […] measured after 24 hrs by LC-MS/MS analysis; assay type: ADME, organism-based; details: in vivo
[10] = Volume of distribution in female CD-1 mouse at 5 mg/kg, iv administered […] measured after 24 hrs by LC-MS/MS analysis; assay type: ADME, organism-based; details: in vivo
[11] = Clearance in female CD-1 mouse at 5 mg/kg, iv administered […] measured after 24 hrs by LC-MS/MS analysis; assay type: ADME, organism-based; details: in vivo
[12] = Half life in female CD-1 mouse at 5 mg/kg, iv administered […] measured after 24 hrs by LC-MS/MS analysis; assay type: ADME, organism-based; details: in vivo
[13] = Hepatic clearance in female CD-1 mouse at 5 mg/kg, iv administered […] measured after 24 hrs by LC-MS/MS analysis; assay type: ADME, organism-based; details: in vivo
[14] = Renal clearance in female CD-1 mouse at 5 mg/kg, iv administered […] measured after 24 hrs by LC-MS/MS analysis; assay type: ADME, organism-based; details: in vivo
[15] = AUC (0 to 24 hrs) in female CD-1 mouse at 10 mg/kg, iv administered […] measured after 24 hrs by LC-MS/MS analysis; assay type: ADME, organism-based; details: in vivo
[16] = Volume of distribution in female CD-1 mouse at 10 mg/kg, iv administered […] measured after 24 hrs by LC-MS/MS analysis; assay type: ADME, organism-based; details: in vivo
[17] = Clearance in female CD-1 mouse at 10 mg/kg, iv administered […] measured after 24 hrs by LC-MS/MS analysis; assay type: ADME, organism-based; details: in vivo
[18] = Half life in female CD-1 mouse at 10 mg/kg, iv administered via gavage measured after 24 hrs by LC-MS/MS analysis; details: in vivo
HepG2 = experiment: Cytotoxicity against human HepG2 cells assessed as inhibition of cell viability preincubated for 24 hrs and measured after 4 hrs by XTT assay; assay type: functional, cell-based
[19] = Cytotoxicity against African green monkey Vero cells; assay type: toxicity, cell-based, Chlorocebus sabaeus

Compound	Kd [1]	deltaG [2]	deltaH [3]	TdeltaS [4]	MIC50 [5]	MIC50 (Staphylococcus aureus [6])	MIC50 (Staphylococcus aureus [7])	AUC(0-t) at 24 h [8]	AUC [9]	Vd [10]	clearance [11]	half-life [12]	CLH [13]	CL renal at 24 h [14]	AUC(0-t) at 24 h [15]	Vd [16]	clearance [17]	half-life at 24 h [18]	IC50 (HepG2)	IC50 [19]
Nc1ncnc2c1ncn2[C@@H]1O[C@H](CNS(=O)(=O)NC(=S)NCCCC[C@@H]2SC[C@@H]3NC(=O)N[C@@H]32)[C@@H](O)[C@H]1O	0.06 µM	-41.4 kJ/mol	-59.4 kJ/mol	18 kJ/mol	> 100 µM	28.7 µM	7.2 µM													
CN(C(=O)CCCC[C@@H]1SC[C@@H]2NC(=O)N[C@@H]21)S(=O)(=O)NC[C@H]1O[C@@H](n2cnc3c(N)ncnc32)[C@H](O)[C@@H]1O	0.12 µM	-40.6 kJ/mol	-40.2 kJ/mol	0.586 kJ/mol	> 100 µM	> 30 µM	> 30 µM													
Nc1cccc2c1ncn2[C@@H]1O[C@H](CNS(=O)(=O)NC(=O)CCCC[C@@H]2SC[C@@H]3NC(=O)N[C@@H]32)[C@@H](F)[C@H]1O	0.228 µM	-38.1 kJ/mol	-58.2 kJ/mol	20.1 kJ/mol	> 100 µM	> 30 µM	> 30 µM													
Nc1cccc2c1ncn2CCCCNS(=O)(=O)NC(=O)CCCC[C@@H]1SC[C@@H]2NC(=O)N[C@@H]21	0.22 µM	-38.1 kJ/mol	-51.5 kJ/mol	13.4 kJ/mol	21 µM	> 30 µM	> 30 µM													
Nc1ncnc2c1ncn2[C@@H]1O[C@H](CNS(=O)(=O)[N-]C(=O)CCCC[C@@H]2SC[C@@H]3NC(=O)N[C@@H]32)[C@@H](O)[C@H]1O.[Na+]		-51.9 kJ/mol	-79.1 kJ/mol	27.6 kJ/mol	2.2 µM	0.21 µM	0.02 µM	1.45 µg·h/mL	0.782 µg·h/mL	0.94 L/kg	3.48 L/h/kg	11 min	1.35 L/h/kg	1.35 L/h/kg						
Nc1cccc2c1ncn2[C@@H]1O[C@H](CNS(=O)(=O)NC(=O)CCCC[C@@H]2SC[C@@H]3NC(=O)N[C@@H]32)[C@@H](O)[C@H]1O	0.22 µM	-39.3 kJ/mol	-58.2 kJ/mol	18.8 kJ/mol	> 100 µM	> 30 µM	> 30 µM													
CC(=O)NC[C@H]1CN(c2ccc(N3CCOCC3)c(F)c2)C(=O)O1 [LINEZOLID]															11 µg·h/mL	0.63 L/kg	0.978 L/h/kg	33 min		
Nc1ncnc2c1ncn2[C@@H]1O[C@H](CNS(=O)(=O)[N-]C(=O)NCCC[C@@H]2SC[C@@H]3NC(=O)N[C@@H]32)[C@@H](O)[C@H]1O.[Na+]				2.09 kJ/mol	20 µM	0.2 µM	0.2 µM	11.2 µg·h/mL	0.032 µg·h/mL	0.45 L/kg	0.42 L/h/kg	42 min							> 100 µM	
Nc1ncnc2c1ncn2[C@@H]1O[C@H](CNS(=O)(=O)NCCCCC[C@@H]2SC[C@@H]3NC(=O)N[C@@H]32)[C@@H](O)[C@H]1O	0.023 µM	-43.5 kJ/mol	-97.1 kJ/mol	53.6 kJ/mol	> 100 µM	28.7 µM	14.4 µM													
C[C@@H]1NC(=O)N[C@@H]1CCCCCC(=O)NS(=O)(=O)NC[C@H]1O[C@@H](n2cnc3c(N)cccc32)[C@H](O)[C@@H]1O	0.019 µM	-44.4 kJ/mol	-56.9 kJ/mol	12.6 kJ/mol	> 100 µM	> 30 µM	> 30 µM													
Nc1ncnc2c1ncn2[C@@H]1O[C@H](Cn2cc(C(=O)CCCC[C@@H]3SC[C@@H]4NC(=O)N[C@@H]43)nn2)[C@@H](O)[C@H]1O					> 100 µM	29.4 µM	29.4 µM													
Nc1ncnc2c1ncn2[C@@H]1O[C@H](CNS(N)(=O)=O)[C@@H](O)[C@H]1O																				6 µM
CC(CCC[C@@H]1SC[C@@H]2NC(=O)N[C@@H]21)C(=O)[N-]S(=O)(=O)NC[C@H]1O[C@@H](n2cnc3c(N)ncnc32)[C@H](O)[C@@H]1O.[Na+] (stereo partly drawn)	0.022 µM	-43.5 kJ/mol	-49.8 kJ/mol	6.28 kJ/mol	50 µM	0.41 µM	0.2 µM	8.64 µg·h/mL	0.029 µg·h/mL	0.54 L/kg	0.6 L/h/kg	39 min								
Nc1ncnc2c1ncn2[C@@H]1O[C@H](CNS(=O)(=O)NC(=O)NCCCCC[C@@H]2SC[C@@H]3NC(=O)N[C@@H]32)[C@@H](O)[C@H]1O	0.11 µM	-39.3 kJ/mol	-41.4 kJ/mol	2.01 kJ/mol	> 100 µM	25.7 µM	12.8 µM													
Nc1ncnc2c1ncn2[C@@H]1O[C@H](Cn2cc(CCCCC[C@@H]3SC[C@@H]4NC(=O)N[C@@H]43)nn2)[C@@H](O)[C@H]1O	0.062 µM	-41.4 kJ/mol	-59.4 kJ/mol	18 kJ/mol	> 100 µM	30 µM	15 µM													
Nc1ncnc2c1ncn2[C@@H]1O[C@H](CNS(=O)(=O)NC(=O)NCCCC[C@@H]2SC[C@@H]3NC(=O)N[C@@H]32)[C@@H](O)[C@H]1O	0.055 µM	-41.4 kJ/mol	-48.1 kJ/mol	6.69 kJ/mol	> 100 µM	0.25 µM	0.12 µM													
